# Results as given in patent US10682371B2, “Small molecule conjugates specifically activated in tumor microenvironment for targeting and use thereof” (priority 2014, dated 2020).
# Where two headings read alike, the source gives them in different places.
# Key:
# [1] = Multiple tumor models in nude mice: HT1080; type: in vivo; settings: Human colon caner HT1080
# Procedure: (§1) 1) Corresponding tumor cells were purchased from American type culture collection (ATCC) and identified according the specification provided by ATCC. Cells were cultivated in DMEM culture solution containing 10% fetal bovine serum at 37° C. and 5% CO2. The cells were passaged for every three days and cells within the 15th passage were used.
# (§2) 2) Production of tumor. 5×10^6 corresponding cells were subcutaneously injected to the back of the nude mice. Mice were randomly grouped after the tumor reached at least 100 mm^3. Then treatment began and the day on which the treatment began was day 1.
# (§3) 3) Course of treatment. […] The control group was administered by physiological saline. Animals were administered once weekly for three weeks.
# (§4) 3) Course of treatment. According to the clinical application of A1, A1 was administered in a dose of ⅙ MTD, i.v., 17.6 μmol/kg. The control group was administered by physiological saline. Animals were administered once weekly for three weeks.
# (§5) 3) Course of treatment. According to the clinical application of B1, B1 was administered in a dose of ⅙ MTD, i.v., 17.6 μmol/kg. The control group was administered by physiological saline. Animals were administered once weekly for three weeks.
# as §3, §3
# [2] = tested on: Human heart; type: biochemical; settings: Human heart, 1 mg/ml
# [3] = tested on: Human breast cancer MDA-MB435; assay: Multiple tumor models in nude mice: MDA-MB435; type: in vivo
# Procedure: as §1, §2, §3, §4, §5, §3, §3
# [4] = tested on: Human non-small cell lung cancer A549; assay: Multiple tumor models in nude mice: A549; type: in vivo
# Procedure: as §1, §2, §3, §4, §5, §3, §3
# [5] = tested on: Human prostate cancer PC-3 cells / Panc-1 cells; assay: Tumor treatment in nude mice (PC-3 cells purchased, Panc-1 cells injected; Examples 22, 32, 42); type: in vivo; settings: for Size of tumor (mm^3) Day 10 / inhibitory rate on tumor Day 10 / Size of tumor (mm^3) Day 24 / inhibitory rate on tumor Day 24: nude mice, IV once weekly for four weeks; for Inhibition on tumor growth, in words: compared with parent drug group (same molar concentration) and control group
# Procedure, shortened: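 Nude mice bearing subcutaneous Panc-1 xenografts (5×10^6 cells on the back) were randomized once tumors reached at least 100 mm^3. Drugs were given intravenously once weekly for four weeks, with saline controls. PC-3 cells were grown in DMEM/10% FBS and used within passage 15.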
# [6] = tested on: Human ovarian cancer SK-OV-3; assay: Multiple tumor models in nude mice: SK-OV-3; type: in vivo
# Procedure: as §1, §2, §3, §4, §5, §3, §3
# [7] = tested on: Human liver cancer Hepg2; assay: Multiple tumor models in nude mice: Hepg2; type: in vivo
# Procedure: as §1, §2, §3, §4, §5, §3, §3
# [8] = tested on: BALB/C mice; assay: Maximum tolerated dose (MTD) / acute toxicity by single intravenous injection; settings: for MTD (maximum tolerated dose): BALB/C mice, intravenous injection, one time; for Mortality rate (%) / Number of dead animal: single intravenous injection, 10 BALB/C mice per group
# [9] = tested on: 4T1 cells; assay: BALB/C mice model for tumor metastasis (4T1, lung metastases); type: in vivo; settings: for Inhibitory rate on metastasis / Number of metastasized tumor: BALB/C mice, 4T1, lung metastases day 27, IV every three days for 4 times; for Inhibitory effect on tumor metastasis, in words: compared with parent drug group and control group
# Procedure, shortened: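 Read-out: lung metastasis count under anatomical microscope after Bouin's staining, day 27. Treatment (IV every three days ×4, saline for controls) started after surgical removal of the ~1.5 cm subcutaneous tumor grown from 10^6 4T1 cells (passage ≤15) in BALB/C mice.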
# [10] = Solubility / formulation test in solvent 1 and solvent 2; type: physicochemical
# Procedure: In Table 11, AAN, AANL and AANK indicate the linkage formed by small peptides in the compounds, A is Ala, N is Asn, L is Leu and K is Lys. […] The dissolution concentration is 10 mg/ml.
# B1, B2, B3 and B4 and various control compounds were dried under vacuum, sterilized via gas sterilization, and separately packing in a sterile room. Before animal test, B1, B2, B3 and B4 were dissolved by solvent 1 (injectable water) or solvent 2 (30% alcohol, 70% injectable water) and diluted by injectable water to the desired concentration in sterile room. […] Change in solubility may greatly affect the formulation scheme of a drug.
# D1, D2, D3, D4 and various control compounds were dried under vacuum, sterilized via gas sterilization, and separately packing in a sterile room. […] Change in solubility may greatly affect the formulation scheme of a drug.
# [11] = tested on: Human fibrosarcoma HT-1080 tumor tissue homogenate; type: biochemical; settings: Human fibrosarcoma HT-1080, 1 mg/ml
# Procedure, shortened: (§6)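 Homogenized tissue (100 μg) is acidified to pH6.0. Test compound is then added at 1 mg/ml, and the mixture is held at 37° C so that the proteases present can activate it.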
# [12] = tested on: tumor tissue homogenates; type: biochemical
# Procedure, shortened: as §6
# [13] = Table 29, i.v. 17.6 μmol/kg once weekly for three weeks
# [14] = Table 26, A1-A4 24 mg/kg, Paclitaxel 8 mg/kg
# [15] = Table 28, A1-A4 12 mg/kg, Paclitaxel 4 mg/kg
# [16] = Table 51, 25 mg/kg once weekly for three weeks
# [17] = Table 50, D1-D4 25 mg/kg, Docetaxel 4.2 mg/kg
# [18] = Table 41, i.v. 17.6 μmol/kg once weekly for three weeks
# [19] = Table 38, B1-B4 25 mg/kg, Docetaxel […]
# [20] = Table 40, B1-B4 17.6 μmol/kg, Docetaxel 3 μmol/kg
structure (smiles),measurement,setting,value
COCCOCC(=O)NCCCC[C@H](NC(=O)COCCOC)C(=O)N[C@H](C)C(=O)N[C@H](C)C(=O)N[C@H](CC(N)=O)C(=O)Nc1ccc(COC(=O)OC(C(=O)OC2C[C@@]3(O)[C@@H](OC(=O)c4ccccc4)[C@H]4[C@](C)(C(=O)[C@H](OC(C)=O)C(=C2C)C3(C)C)[C@@H](O)CC2OC[C@]24OC(C)=O)[C@@H](NC(=O)c2ccccc2)c2ccccc2)cc1 (stereo partly shown) [Compound A1],inhibitory rate on tumor (Day 26),[1]; [13],95.6%
same,Activation ratio (%) in homogenates from different tumor tissues,"[2]; acidized homogenate pH6.0, Paclitaxel release by HPLC",none
same,inhibitory rate on tumor (Day 26),[3]; [13],91.2%
same,inhibitory rate on tumor (Day 26),[4]; [13],95.3%
same,Size of tumor (mm^3) Day 10,[5]; [14],85.16 ± 58.4 mm^3
same,inhibitory rate on tumor Day 10,[5]; [14],71.1%
same,Size of tumor (mm^3) Day 24,[5]; [14],89.78 ± 63.7 mm^3
same,inhibitory rate on tumor Day 24,[5]; [14],76.4%
same,"Inhibition on tumor growth, in words",[5],greatly improved
same,inhibitory rate on tumor (Day 26),[6]; [13],84.4%
same,inhibitory rate on tumor (Day 26),[7]; [13],85.4%
same,Behaviors and death observed,[8]; BALB/C mice receiving 90 mg/kg injection,"no pilo-erection, hair tousle and lackluster, lethargy, stoop, irritable reaction and death"
same,MTD (maximum tolerated dose),[8],about 90 mg/kg
same,Mortality rate (%),[8]; 125 mg/kg,0%
same,Number of dead animal,[8]; 125 mg/kg,0
same,Mortality rate (%),[8]; 150 mg/kg,0%
same,Number of dead animal,[8]; 150 mg/kg,0
same,Mortality rate (%),[8]; 175 mg/kg,0%
same,Number of dead animal,[8]; 175 mg/kg,0
same,Mortality rate (%),[8]; 200 mg/kg,0%
same,Number of dead animal,[8]; 200 mg/kg,0
same,Inhibitory rate on metastasis,[9]; [15],97.9%
same,Number of metastasized tumor,[9]; [15],3 ± 4
same,"Inhibitory effect on tumor metastasis, in words",[9],greatly improved
same,solubility in Solvent 1,"[10]; solvent 1 (injectable water), Table 22, Paclitaxel series",insoluble
same,"Concentration achieved, completely dissolved in both solvent 1 and solvent 2","[10]; solvent 1 injectable water, solvent 2 45% alcohol, 55% injectable water",10000 µg/mL
same,solubility in Solvent 2,"[10]; solvent 2 (45% alcohol, 55% injectable water), Table 22, Paclitaxel series",soluble
same,"Solubility in water, in words",[10]; water,can directly dissolve in water
same,Activation ratio (%) in homogenates from different tumor tissues,"[11]; 100 μg acidized homogenate pH6.0, Paclitaxel release by HPLC",77.7%
same,"Activation efficiency by tumor tissue, in words",[12],highest activation efficiency among the screened compounds
"COCCOCC(=O)N[C@H](C)C(=O)N[C@H](C)C(=O)N[C@H](CC(N)=O)C(=O)Nc1ccc(COC(=O)OC(C(=O)OC2C[C@@]3(O)[C@@H](OC(=O)c4ccccc4)[C@H]4[C@](C)(C(=O)[C@H](O)C(=C2C)C3(C)C)[C@@H](O)CC2OC[C@]24OC(C)=O)[C@@H](NC(=O)OC(C)(C)C)c2ccccc2)cc1 (stereo partly drawn) [Compound D1, 2-(2-methoxyethoxy) acetyl-L-Ala-L-Ala-L-Asn-4-amino benzyl-Docetaxel]",inhibitory rate on tumor (Day 26),[1]; [16],94.6%
same,inhibitory rate on tumor (Day 26),[3]; [16],93.5%
same,inhibitory rate on tumor (Day 26),[4]; [16],90.4%
same,inhibitory rate on tumor (Day 26),[6]; [16],82.9%
same,inhibitory rate on tumor (Day 26),[7]; [16],75.7%
same,Behaviors and death observed,[8]; BALB/C mice receiving 150 mg/kg injection,"no pilo-erection, hair tousle and lackluster, lethargy, stoop, irritable reaction and death"
same,MTD (maximum tolerated dose),[8],about 150 mg/kg
same,Mortality rate (%),[8]; 125 mg/kg,0%
same,Number of dead animal,[8]; 125 mg/kg,0
same,Mortality rate (%),[8]; 150 mg/kg,0%
same,Number of dead animal,[8]; 150 mg/kg,0
same,Mortality rate (%),[8]; 175 mg/kg,0%
same,Number of dead animal,[8]; 175 mg/kg,0
same,Mortality rate (%),[8]; 200 mg/kg,10%
same,Number of dead animal,[8]; 200 mg/kg,1
same,Inhibitory rate on metastasis,[9]; [17],95.2
same,Number of metastasized tumor,[9]; [17],5 ± 3
same,"Inhibitory effect on tumor metastasis, in words",[9],greatly improved
same,solubility in Solvent 1,"[10]; Table 44, second column (head repeats Solvent 1), text: solvent 2 (45% alcohol, 55% injectable water)",soluble
same,solubility in Solvent 1,"[10]; solvent 1 (injectable water), Table 44, first column, Docetaxel D series",insoluble
same,Activation ratio (%) in homogenates from different tumor tissues,"[11]; Table 45, 100 μg acidized homogenate, Docetaxel release by HPLC",77.23%
same,"Activation efficiency by tumor tissue, in words",[12],highest activation efficiency
COCCOCC(=O)NCCCC[C@H](NC(=O)COCCOC)C(=O)N[C@H](C)C(=O)N[C@H](C)C(=O)N[C@H](CC(N)=O)C(=O)Nc1ccc(COC(=O)OC(C(=O)OC2C[C@@]3(O)[C@@H](OC(=O)c4ccccc4)[C@H]4[C@](C)(C(=O)[C@H](O)C(=C2C)C3(C)C)[C@@H](O)CC2OC[C@]24OC(C)=O)[C@@H](NC(=O)OC(C)(C)C)c2ccccc2)cc1 (stereo partly shown) [Compound B1],inhibitory rate on tumor (Day 26),[1]; [18],84.46%
same,activation efficiency (%),"[2]; Table 34, acidized homogenate, Docetaxel release by HPLC",12.2%
same,inhibitory rate on tumor (Day 26),[3]; [18],78.84%
same,inhibitory rate on tumor (Day 26),[4]; [18],74.56%
same,Size of tumor (mm^3) Day 10,[5]; [19],92.4 ± 59.66 mm^3
same,inhibitory rate on tumor Day 10,[5]; [19],67.8
same,Size of tumor (mm^3) Day 24,[5]; [19],128.45 ± 105.56 mm^3
same,inhibitory rate on tumor Day 24,[5]; [19],66.3
same,"Inhibition on tumor growth, in words",[5],greatly improved
same,inhibitory rate on tumor (Day 26),[6]; [18],74.67%
same,inhibitory rate on tumor (Day 26),[7]; [18],81.56%
same,Behaviors and death observed,[8]; BALB/C mice receiving 175 mg/kg injection,"no pilo-erection, hair tousle and lackluster, lethargy, stoop, irritable reaction and death"
same,MTD (maximum tolerated dose),[8],about 150 mg/kg
same,Mortality rate (%),[8]; 125 mg/kg,0%
same,Number of dead animal,[8]; 125 mg/kg,0
same,Mortality rate (%),[8]; 150 mg/kg,0%
same,Number of dead animal,[8]; 150 mg/kg,0
same,Mortality rate (%),[8]; 175 mg/kg,0%
same,Number of dead animal,[8]; 175 mg/kg,0
same,Mortality rate (%),[8]; 200 mg/kg,20%
same,Number of dead animal,[8]; 200 mg/kg,2
same,Inhibitory rate on metastasis,[9]; [20],96.0
same,Number of metastasized tumor,[9]; [20],5 ± 3
same,"Inhibitory effect on tumor metastasis, in words",[9],greatly improved
same,solubility in Solvent 1,"[10]; solvent 1 (injectable water), Table 33, water-soluble Docetaxel series",insoluble
same,solubility in Solvent 2,"[10]; solvent 2 (30% alcohol, 70% injectable water), Table 33, water-soluble Docetaxel series",soluble
same,activation efficiency (%),"[11]; Table 34, 100 μg acidized homogenate, Docetaxel release by HPLC",79.1%
